Experimental data published in ChEMBL document CHEMBL2146429, “Potassium channel modulators as possible treatment for pain: patent highlight” (ACS Med Chem Lett, 2012).

molecular target: Voltage-gated potassium channel, KQT; KCNQ2(Kv7.2)/KCNQ3(Kv7.3) (Homo sapiens, UniProt O43525+O43526); assay: Activation of KCNQ2/Q3; format: protein-complex assay
Sequence (O43526 whole entry): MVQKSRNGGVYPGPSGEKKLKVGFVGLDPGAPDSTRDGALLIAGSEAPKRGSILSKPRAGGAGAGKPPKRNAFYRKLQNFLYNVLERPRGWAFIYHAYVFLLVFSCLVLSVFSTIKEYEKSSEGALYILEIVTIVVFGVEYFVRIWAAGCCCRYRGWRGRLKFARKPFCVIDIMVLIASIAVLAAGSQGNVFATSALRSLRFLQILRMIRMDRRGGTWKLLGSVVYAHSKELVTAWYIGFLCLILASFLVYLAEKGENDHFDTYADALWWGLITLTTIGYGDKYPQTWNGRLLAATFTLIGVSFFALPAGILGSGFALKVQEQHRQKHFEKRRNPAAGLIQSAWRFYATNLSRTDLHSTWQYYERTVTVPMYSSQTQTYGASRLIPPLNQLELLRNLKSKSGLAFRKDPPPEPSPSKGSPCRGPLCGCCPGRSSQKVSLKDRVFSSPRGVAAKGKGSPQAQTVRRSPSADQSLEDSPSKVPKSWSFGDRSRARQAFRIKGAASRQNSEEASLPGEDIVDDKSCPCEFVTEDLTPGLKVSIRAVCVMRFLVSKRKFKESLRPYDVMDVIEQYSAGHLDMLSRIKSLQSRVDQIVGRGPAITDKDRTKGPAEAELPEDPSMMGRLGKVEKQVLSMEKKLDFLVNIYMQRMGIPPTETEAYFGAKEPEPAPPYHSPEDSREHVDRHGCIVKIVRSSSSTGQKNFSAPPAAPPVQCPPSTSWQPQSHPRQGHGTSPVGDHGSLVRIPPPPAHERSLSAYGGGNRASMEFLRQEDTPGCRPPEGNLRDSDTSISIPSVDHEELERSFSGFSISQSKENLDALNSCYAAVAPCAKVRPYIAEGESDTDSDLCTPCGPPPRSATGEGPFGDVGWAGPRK
Sequence (O43525 whole entry): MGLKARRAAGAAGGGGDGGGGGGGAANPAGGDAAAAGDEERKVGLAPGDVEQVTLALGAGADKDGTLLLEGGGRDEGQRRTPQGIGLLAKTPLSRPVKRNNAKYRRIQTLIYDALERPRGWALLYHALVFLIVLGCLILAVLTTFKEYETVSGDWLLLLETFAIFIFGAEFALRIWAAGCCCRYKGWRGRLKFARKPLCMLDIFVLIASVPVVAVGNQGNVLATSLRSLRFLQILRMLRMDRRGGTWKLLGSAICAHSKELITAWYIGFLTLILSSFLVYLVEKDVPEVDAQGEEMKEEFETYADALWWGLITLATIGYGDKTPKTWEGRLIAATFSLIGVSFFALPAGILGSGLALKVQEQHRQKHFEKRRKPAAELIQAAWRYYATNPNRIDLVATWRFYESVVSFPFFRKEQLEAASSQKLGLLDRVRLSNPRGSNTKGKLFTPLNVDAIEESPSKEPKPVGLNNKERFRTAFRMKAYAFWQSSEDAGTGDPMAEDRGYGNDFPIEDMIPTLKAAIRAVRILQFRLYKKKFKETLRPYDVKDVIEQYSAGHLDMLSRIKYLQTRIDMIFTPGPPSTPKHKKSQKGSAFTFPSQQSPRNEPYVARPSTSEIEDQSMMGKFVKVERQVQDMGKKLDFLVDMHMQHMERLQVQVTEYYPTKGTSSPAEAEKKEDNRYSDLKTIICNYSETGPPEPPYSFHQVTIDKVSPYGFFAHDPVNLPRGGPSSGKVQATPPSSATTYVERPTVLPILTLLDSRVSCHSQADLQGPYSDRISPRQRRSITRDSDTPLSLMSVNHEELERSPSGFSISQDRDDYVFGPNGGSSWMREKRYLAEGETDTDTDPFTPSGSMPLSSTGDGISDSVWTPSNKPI

EC50 [nM] | SMILES
< 100 | Cc1cnc2c(Cc3ccc(F)cc3)c(NC(=O)CC3CCCC3)nn2c1
< 1000 | CC(C)(C)CC(=O)Nc1nn2cccnc2c1-c1ccc(F)cc1
< 500 | CC(C)(C)CC(=O)Nc1nn2cccnc2c1-c1ccc(OC(F)(F)F)cc1
